Measurements as given in article PMC7934871 (JCI Insight, 2021).

How the values were obtained:
[1] = system: CRC patient primary tumor spheres
Description: TAMRA-acet.-STAT3 (red fluorescence) and PO-FAM-acet.-STAT3 (green fluorescence)
peptides were incubated with patient primary tumor sphere for 4 hours and the cell penetration
was visualized by confocal microscopy. Scale bar: 50 µm.
(D) The primary CRC tumor cells derived from PDX were treated with different concentrations of
PO- or PS-acet.-STAT3 peptide as indicated for 3 days. The cell viability was measured by
CellTiter Glo assay and normalized with vehicle (HBSS) treatment. Data represent 3
independent experiments (n=3). SD is shown. Unpaired Student’s t-test ****; P< 0.001; **, P<
(E) Gene expression of MYC, MMP9 and BIRC5 was detected by qPCR and normalized with
ACTB after vehicle, 1 µM of PO-or PS-acet.-STAT3 peptide treatment with CRC PDX tumor
cells. Data represent 3 independent experiments (n=3). SD is shown. One-way ANOVA. ****; P<

HCT116 xenograft tumors = test: HCT116 xenograft, monomer versus dimerized peptide, peritumoral; format: in vivo, mouse; conditions: HCT116 s.c. in NSG mice, peritumoral injection, monomer or dimerized, n = 5
Excerpt: Figure 5 Dimerized PS-acet.-STAT3 peptide has improved antitumor functions. (A) The enhanced antitumor effect of the dimerized PS-acet.-STAT3 peptide is shown in HCT116 tumors grown in NSG mice (n = 5). Two-way ANOVA (Tukey’s multiple comparisons test) was used for analyzing the kinetics of tumor growth over the treatment period; ****P < 0.001; *P < 0.05. (B) The dimerized PS-acet.-STAT3 peptide downregulates pY705-STAT3 more effectively, as analyzed by immunoprecipitation and Western blotting with tumor homogenates from the tumors in A. hc, heavy chain of antibody. […] (D) quantitative real-time RT-PCR showing mRNA levels of STAT3-regulated proapoptotic and prosurvival genes in HCT116 tumor tissues treated with the indicated STAT3 peptides in A. n = 3 independent quantitative real-time RT-PCR experiments. […] Right panels show the quantified Ki-67 protein levels as well as mean of vessel diameter (data include 5 fields of view per group). […]
Mouse care and experimental procedures were performed under pathogen-free conditions in accordance with established institutional guidance and approved IACUC protocols from Research Animal Care Committee of the City of Hope. […] Tumor growth was measured by a digital caliper every other day. […] Lungs were then analyzed for immune responses by immunostaining followed by confocal imaging. […] Tumor growth was measured by a digital caliper every other day. […]

pY705-STAT3 = test: IL-6–induced pY705-STAT3 in splenic CD8+ T cells, Western blotting; format: cell-based; conditions: mouse splenic CD8+ T cells
splenic CD8+ T cells = test: CD8+ T cell activation and ELISA (IFN-γ, IL-2); format: cell-based, mouse; conditions: anti-CD3/CD28 activated, 20 ng/mL IL-6, 1 μM peptide, 48 hours, ELISA, n = 4
Description: Data are representative of 3 independent experiments (n = 3). […] Data represent 4 independent experiments (n = 4). SD is shown. One-way ANOVA; ****P < 0.001.
CD8^+ T cells were isolated from C57BL/6 mice spleens as described above. A 96-well plate (Cellstar) was precoated with 2 μg/mL anti-CD3 antibody (BioLegend, clone 145-2c11, 100331) at 4°C overnight (BioLegend), and 1–2 × 10^5 cells were seeded into each well, followed by adding 2 μg/mL soluble CD28 (BioLegend, clone 37-51, 102012) and stimulation with 20 ng/mL IL-6. PS-unacet.-STAT3, PS-STAT3-K685R, and PO- or PS-acet.-STAT3 peptides at a concentration of 1 μM were added to the cells. Peptide treatment was repeated on the following day. Control cells were treated with HBSS. After 48 hours’ treatment with peptides at 37°C, supernatants were assessed for IFN-γ and IL-2 production by R&D, Bio-Techne, kits (DY402 and DY406), according to manufacturer’s instruction.

HCT116 cells = format: cell-based, human
Description: Bis-(1,3-Dibutylbarbituric Acid) Trimethine Oxonol [DiBAC4(3)]
Supplemental Figure 3 (related to Figure 1). The potential mechanism of PS-oligo
mediated cell penetration.
penetration was assessed by flow cytometry. SD is shown. Unpaired student t-test. ****
P< 0.001. Data shown is the representative of 3 independent experiments.
(B) HCT116 cells were pre-treated with a variety of endocytosis inhibitors prior to
treating with FAM-labeled PS-acet.-STAT3 peptide. The graph represents the statistical
analysis of the fluorescence intensity (M.F.I) of FAM-labeled peptide shown in A. SD is
shown. n= 5 independent experiments. Unpaired student t-test. **** P< 0.001.
(C) Polarization of cell membrane contributes to penetration of PS-acet.-STAT3
peptide. Cell membrane was depolarized by adding 120 mM KCl to HCT116 for 2.5 h,
followed by incubation with the peptide (upper panel). Data is representative of 4
independent experiments. Depolarization of the cell membrane was confirmed by
applying 2.5 mM DiBAC4(3) to other cells (lower panel). n= 3 independent experiments.
Penetration was assessed by flow cytometry. The right panels show the mean of
fluorescence intensity (M.F.I) quantified by FlowJo software. SD is shown. Unpaired
student t-test. *, P<0.05; *** P< 0.005.
Aftabizadeh and Li et al., Figure S3

PDIPKEEAFGK685(Ac)YCRPESQEHPC-linker-T*C*C*A*T*G*A*G*C*T*T*C*C*T*G*A*T*G*C*T [PS-acet.-STAT3 peptide]
effects on cell proliferation and gene expression of STAT3 target genes in patient primary tumor spheres ([1]; 3 days, CellTiter Glo, 1 µM, qPCR of MYC, MMP9, BIRC5, n = 3): significant inhibitory effects | cell permeability in patient primary tumor spheres ([1]; not told): high cell permeability | tumor growth (HCT116 xenograft tumors): significantly reduced | IL-6–induced STAT3 activation (pY705 phosphorylation) in CD8+ T cells (pY705-STAT3): downregulated | interferon-γ (IFN-γ) and IL-2 production by CD8+ T cells (splenic CD8+ T cells): induced | peptide penetration in presence of dextran sulfate (HCT116 cells): partially
